Laboratory results published in ChEMBL document CHEMBL5329194, “Design, Synthesis, and Evaluation of 18F-Labeling CYP1B1 PET Tracer Based on 2-Phenylquinazolin” (Bioorg Med Chem Lett, 2023).

Assays:
[1] = target: T1, Cytochrome P450 1B1 (Homo sapiens, UniProt Q16678); test: Inhibition of CYP1B1 (unknown origin) by EROD assay; type: ADME
T1 sequence (Q16678 whole entry): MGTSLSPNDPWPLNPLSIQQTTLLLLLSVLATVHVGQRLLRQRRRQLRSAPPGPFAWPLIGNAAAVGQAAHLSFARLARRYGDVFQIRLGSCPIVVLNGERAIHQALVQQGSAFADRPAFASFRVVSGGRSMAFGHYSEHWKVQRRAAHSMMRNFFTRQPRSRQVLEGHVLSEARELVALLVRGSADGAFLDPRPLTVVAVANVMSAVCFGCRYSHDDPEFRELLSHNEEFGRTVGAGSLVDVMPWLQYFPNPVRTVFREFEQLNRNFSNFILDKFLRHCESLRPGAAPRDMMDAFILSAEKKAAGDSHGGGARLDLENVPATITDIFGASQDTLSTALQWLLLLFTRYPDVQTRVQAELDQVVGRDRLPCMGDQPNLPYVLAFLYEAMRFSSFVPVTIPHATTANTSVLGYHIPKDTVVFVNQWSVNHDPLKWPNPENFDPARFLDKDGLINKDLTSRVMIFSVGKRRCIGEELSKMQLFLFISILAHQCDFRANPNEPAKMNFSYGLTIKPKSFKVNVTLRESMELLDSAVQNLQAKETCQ

[2] = test system: CYP1A2 versus CYP1B1; test: Selectivity ratio of IC50 for inhibition of CYP1A2 (unknown origin) to IC50 for inhibition of CYP1B1 (unknown origin); type: ADME; conditions: human; read-out: Ratio IC50
[3] = test system: CYP1A1 versus CYP1B1; test: Selectivity ratio of IC50 for inhibition of CYP1A1 (unknown origin) to IC50 for inhibition of CYP1B1 (unknown origin); type: ADME; conditions: human; read-out: Ratio IC50
[4] = target: T2, Cytochrome P450 1A1 (Homo sapiens, UniProt P04798); test: Inhibition of CYP1A1 (unknown origin); type: ADME
T2 sequence (P04798 whole entry): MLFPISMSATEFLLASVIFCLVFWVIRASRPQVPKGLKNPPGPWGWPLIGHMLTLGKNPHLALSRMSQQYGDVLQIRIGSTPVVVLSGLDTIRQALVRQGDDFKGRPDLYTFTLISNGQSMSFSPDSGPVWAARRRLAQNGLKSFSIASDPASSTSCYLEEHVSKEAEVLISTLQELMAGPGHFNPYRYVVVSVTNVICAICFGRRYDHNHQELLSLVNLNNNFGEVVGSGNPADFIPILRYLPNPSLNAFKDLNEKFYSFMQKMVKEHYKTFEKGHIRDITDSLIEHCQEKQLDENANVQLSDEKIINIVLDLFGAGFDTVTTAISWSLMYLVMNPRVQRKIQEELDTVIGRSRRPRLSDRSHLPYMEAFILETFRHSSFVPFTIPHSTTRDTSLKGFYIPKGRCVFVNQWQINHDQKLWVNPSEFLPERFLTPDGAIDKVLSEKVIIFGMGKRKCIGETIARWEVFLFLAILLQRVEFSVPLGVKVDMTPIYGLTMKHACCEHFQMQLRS

[5] = target: T3, Cytochrome P450 1A2 (Homo sapiens, UniProt P05177); test: Inhibition of CYP1A2 (unknown origin); type: ADME
T3 sequence (P05177 whole entry): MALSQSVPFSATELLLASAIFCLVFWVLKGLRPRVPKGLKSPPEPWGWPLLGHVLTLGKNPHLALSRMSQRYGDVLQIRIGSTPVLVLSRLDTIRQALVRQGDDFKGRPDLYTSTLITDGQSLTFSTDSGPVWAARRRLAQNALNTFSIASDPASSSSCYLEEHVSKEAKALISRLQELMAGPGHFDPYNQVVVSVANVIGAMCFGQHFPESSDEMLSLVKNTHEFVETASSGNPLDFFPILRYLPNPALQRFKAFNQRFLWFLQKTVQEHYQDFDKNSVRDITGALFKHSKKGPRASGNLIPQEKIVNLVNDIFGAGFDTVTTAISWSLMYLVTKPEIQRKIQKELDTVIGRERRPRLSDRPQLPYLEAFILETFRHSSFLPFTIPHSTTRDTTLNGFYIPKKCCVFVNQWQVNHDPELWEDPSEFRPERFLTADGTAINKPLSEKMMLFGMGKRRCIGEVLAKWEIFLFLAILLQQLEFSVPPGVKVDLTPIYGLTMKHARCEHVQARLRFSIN

[6] = Drug uptake in human HCT-15 cells measured after 30 mins; type: ADME, cell-based; conditions: hct-15, 0.5 h
[7] = Drug uptake in human MCF7 cells measured after 30 mins; type: ADME, cell-based; conditions: mcf7, 0.5 h

IC50 [1] [nM]	IC50 [4] [nM]	IC50 [5] [nM]	Drug uptake [6] [%]	Drug uptake [7] [%]	Structure (SMILES)	selectivity ratio [2]	selectivity ratio [3]
47.3	> 1000	> 1000	–	–	FCCOc1nc(-c2ccc(Br)cc2)nc2ccccc12	> 21.1	> 21.1
48.2	> 1000	> 1000	25.61	21.56	FCCOCCOCCOc1nc(-c2ccc(Br)cc2)nc2ccccc12	> 20.7	> 20.7
> 1000	> 1000	> 1000	–	–	Oc1nc(-c2ccc(F)cc2)nc2ccccc12	–	–
